Reference: article PMC10072319 (Bioorganic & medicinal chemistry letters, 2023)

How the values were obtained:
T. b. brucei Lister 427 = type: cell-based, Trypanosoma brucei brucei; conditions: for activity against T. b. brucei, in words: first pass screen at 4 μM
HEK293 cells = assay: Resazurin cell viability; conditions: read-out: HEK293 CC50, 48 h, mean ± SD
T. b. brucei parasites = assay: Time-kill experiment, parasites quantified by hemocytometer cell counting; type: cell-based, Trypanosoma brucei brucei; conditions: for time required to kill the parasites: all concentrations tested (46: 1, 2 and 4 μM; pentamidine: 0.5, 1 and 2 μM)
[1] = test system: T. b. brucei trypanosomes; assay: Washout experiment; type: cell-based, Trypanosoma brucei brucei; conditions: 1, 2 and 4 μM for 6, 4 and 2 h, washed three times, monitored a further 48 h

Row | SMILES | activity against T. b. brucei, in words (T. b. brucei Lister 427) | also measured
1 | O=C(/C=C/c1ccc(C(F)(F)F)cc1)CC(=O)/C=C/c1ccc(C(F)(F)F)cc1 [Compound 11] | inactive | –
2 | COc1ccc(/C=C/C(=O)/C=C/c2ccc(OC)c(OC)c2)cc1OC [Compound 16] | sub-micromolar activity | selectivity index (SI = HEK293 CC50/T. b. brucei EC50) (T. b. brucei Lister 427): above 10
3 | O=C(/C=C/c1ccccc1)/C=C/c1ccccc1 [Compound 3, dibenzylideneacetone] | – | CC50 (HEK293 cells): 8.33 ± 0.48 µM; EC50 (T. b. brucei Lister 427; read-out: T. b. brucei EC50, bloodstream forms, Lister 427, SYBR green, 72 h, mean ± SD): 0.8 ± 0.2 µM
4 | COc1cccc(/C=C/C(=O)CC(=O)/C=C/c2cccc(OC)c2)c1 [Compound 7] | inactive | –
5 | O=C(/C=C/c1ccccc1)CC(=O)/C=C/c1ccccc1 [Compound 5] | no measurable activity | –
6 | N=C(N)c1ccc(OCCCCCOc2ccc(C(=N)N)cc2)cc1 [Pentamidine, reference compound] | – | time required to kill the parasites (T. b. brucei parasites): > 30 h
7 | O=C(/C=C/c1ccccc1Cl)/C=C/c1ccccc1Cl [Compound 19] | sub-micromolar activity | selectivity index (SI = HEK293 CC50/T. b. brucei EC50) (T. b. brucei Lister 427): above 10
8 | COc1ccc(/C=C/C(=O)CC(=O)/C=C/c2ccc(OC)c(OC)c2)cc1OC [Compound 8] | inactive | –
9 | COc1ccc(/C=C/C(=O)/C=C/c2ccccc2)cc1 [Compound 35] | no activity | –
10 | O=C(/C=C/c1ccccc1)/C=C/c1cccc([N+](=O)[O-])c1 [Compound 46] | – | trypanocidal vs trypanostatic activity after washout [1]: trypanocidal rather than trypanostatic; time required to kill the parasites (T. b. brucei parasites): less than 24 h; time required to kill the parasite (T. b. brucei parasites; at 2 and 4 μM): less than 6 h
11 | O=C(/C=C/c1ccc(Cl)c(Cl)c1)CC(=O)/C=C/c1ccc(Cl)c(Cl)c1 [Compound 12] | inactive | –
12 | COc1cccc(/C=C/C(=O)/C=C/c2cccc(OC)c2)c1 [Compound 28] | inactive | –
13 | COc1ccc(/C=C/C(=O)/C=C/c2ccc(OC)cc2)cc1 [Compound 29] | inactive | –
14 | COc1cc(/C=C2\CCC/C(=C\c3cc(OC)cc(OC)c3)C2=O)cc(OC)c1 [Compound 34] | inactive | –
15 | CN(C)c1ccc(/C=C/C(=O)/C=C/c2ccccc2)cc1 [Compound 40] | no activity | –
16 | COc1cc(/C=C/C(=O)/C=C/c2cc(OC)c(OC)c(OC)c2)cc(OC)c1OC [Compound 13] | sub-micromolar activity | –
